# In paper PMC4821887, “Identification of chemicals that mimic transcriptional changes associated with autism, brain aging and neurodegeneration” (Nature Communications, 2016):
# System: mouse cortical neuron cultures
# Details: not given
row,Compound,% Dead cells (vehicle subtracted) [%]
1,CCOP(=S)(OCC)SCCSCC [Disulfoton],2.557
2,CN(C)C(=O)Nc1ccc(Cl)c(Cl)c1 [Diuron],-0.632
3,CCCN(CCC)C(=O)SCC [EPTC],3.437
4,O=S1OCC2C(CO1)C1(Cl)C(Cl)=C(Cl)C2(Cl)C1(Cl)Cl (stereo not drawn) [Endosulfan],-0.8816
5,CC(C)[C@H](C(=O)O[C@H](C#N)c1cccc(Oc2ccccc2)c1)c1ccc(Cl)cc1 [Esfenvalerate],4.898
6,CCOC1Oc2ccc(OS(C)(=O)=O)cc2C1(C)C (stereo not drawn) [Ethofumesate],-0.3872
7,S=C1NCCN1 [Ethylenethiourea (2-Imidazolidinethione)],-0.5482
8,CCOc1cc(C(C)(C)C)ccc1C1COC(c2c(F)cccc2F)=N1 (stereo not drawn) [Etoxazole],-1.186
9,CCOP(=O)(NC(C)C)Oc1ccc(SC)c(C)c1 (stereo not drawn) [Fenamiphos],5.708
10,OC(c1ccc(Cl)cc1)(c1cncnc1)c1ccccc1Cl (stereo not drawn) [Fenarimol],-1.829
11,COP(=S)(OC)Oc1ccc([N+](=O)[O-])c(C)c1 [Fenitrothion],-1.338
12,CC1(C)C(C(=O)OC(C#N)c2cccc(Oc3ccccc3)c2)C1(C)C (stereo not drawn) [Fenpropathrin (Danitol)],-1.601
13,COP(=S)(OC)Oc1ccc(SC)c(C)c1 [Fenthion],-0.5799
14,N#Cc1c[nH]cc1-c1cccc2c1OC(F)(F)O2 [Fludioxonil],-2.856
15,CCOC(=O)COc1cc(-n2ncc(C(F)(F)F)c(C)c2=O)c(F)cc1Cl [Flufenpyr-ethyl],-1.575
16,CCN(Cc1c(F)cccc1Cl)c1c([N+](=O)[O-])cc(C(F)(F)F)cc1[N+](=O)[O-] [Flumetralin],1.368
17,C#CCN1C(=O)COc2cc(F)c(N3C(=O)C4=C(CCCC4)C3=O)cc21 [Flumioxazin],7.054
18,CCCCCCC(C)OC(=O)COc1nc(F)c(Cl)c(N)c1Cl (stereo not drawn) [Fluroxypyr-meptyl],-1.2099
19,CC(C)Oc1cccc(NC(=O)c2ccccc2C(F)(F)F)c1 [Flutolanil],9.589
20,O=C(Nc1ccccc1)Nc1ccnc(Cl)c1 [Forchlorfenuron],0.6006

# Same assay, conditions: mouse, 24 h, 0.01 µM
row,Compound,% Dead cells (vehicle subtracted) [%]
1,CCCCOC(=O)C(C)Oc1ccc(Oc2ccc(C(F)(F)F)cn2)cc1 (stereo not drawn) [Fluazifop-butyl],0.215

# Same assay, conditions: mouse, 24 h, 0.1 µM
row,Compound,% Dead cells (vehicle subtracted) [%]
1,CCCCOC(=O)C(C)Oc1ccc(Oc2ccc(C(F)(F)F)cn2)cc1 (stereo not drawn) [Fluazifop-butyl],-0.165

# Same assay, conditions: mouse, 24 h, 1 µM
row,Compound,% Dead cells (vehicle subtracted) [%]
1,CCCCOC(=O)C(C)Oc1ccc(Oc2ccc(C(F)(F)F)cn2)cc1 (stereo not drawn) [Fluazifop-butyl],23.9839

# Same assay, conditions: mouse, 24 h, 10 µM
row,Compound,% Dead cells (vehicle subtracted) [%]
1,c1ccc(Nc2ccccc2)cc1 [Diphenylamine],2.557
2,C=C(C)CN(CC)c1c([N+](=O)[O-])cc(C(F)(F)F)cc1[N+](=O)[O-] [Ethalfluralin],1.146
3,O=P(O)(O)CCCl [Ethephon],-0.1299
4,CC1(C(=O)Nc2ccc(O)c(Cl)c2Cl)CCCCC1 [Fenhexamid],-0.6431
5,CCOC(=O)C(C)Oc1ccc(Oc2nc3ccc(Cl)cc3o2)cc1 (stereo not drawn) [Fenoxaprop-ethyl],9.924
6,CCCCOC(=O)C(C)Oc1ccc(Oc2ccc(C(F)(F)F)cn2)cc1 (stereo not drawn) [Fluazifop-butyl],7.788
7,Cc1ccn2nc(S(=O)(=O)Nc3c(F)cccc3F)nc2n1 [Flumetsulam],0.4495
8,CCCCCOC(=O)COc1cc(N2C(=O)C3=C(CCCC3)C2=O)c(F)cc1Cl [Flumiclorac-pentyl],-0.6581
9,CN(C)C(=O)Nc1cccc(C(F)(F)F)c1 [Fluometuron],0.2278
10,Nc1c(Cl)c(F)nc(OCC(=O)O)c1Cl [Fluroxypyr],-1.905
11,C[Si](Cn1cncn1)(c1ccc(F)cc1)c1ccc(F)cc1 [Flusilazole],-0.05737
12,COC(=O)CSc1cc(/N=c2\sc(=O)n3n2CCCC3)c(F)cc1Cl [Fluthiacet-methyl],-0.383
13,O=C1c2ccccc2C(=O)N1SC(Cl)(Cl)Cl [Folpet],-1.248
